Measured values reported in patent publication US20250115597A1, “TYK2 INHIBITORS AND COMPOSITIONS AND METHODS THEREOF” (LYNK PHARMACEUTICALS CO. LTD., priority 2021, published 2025).

System: pSTAT1
Experiment: Phosphorylation inhibition of STAT in human PBMC, IFN-alpha stimulated (flow cytometry)
Assay type: cell-based
Settings: 20 min; human PBMC, IFN-alpha 20 mins, CD3 cells; read-out: IC50 on pSTAT1 inhibition in hPBMC
Protocol: Phosphorylation Inhibition of STAT in Human PBMC and Human Whole Blood Testing:
The inhibitory potential of test articles in human PBMC and human whole blood assay was evaluated by the method of flow cytometry.
IFN-alpha will activate JAK1 and TYK2 kinase in T cells by binding to IFN receptors, and then lead to phosphorylation of STAT1 and STAT2. The phosphorylated STAT1 enter nuclear and promote transcription and expression of IFN-gamma. To evaluate the efficacy of TYK2i in T cells, freshly prepared human PBMC or freshly collected human whole blood will be stimulated with certain unit of human IFN-alpha (Universal Type I IFN(1MU), R&D, 11200-2) for 20 mins in incubator. After stimulation, fix cells with Phosflow™ Fix Buffer I (BD, 557870), and then collect fixed cells by centrifugation (500 g, 8 min). Wash cells once with pre-cooled PBS, and then permeabilize cells with cold Perm Buffer III buffer (BD, 558050) for 45 mins on ice. Collect cells by centrifugation (600 g, 8 min) and washed twice with cold PBS. Stain cells with anti-human CD3 (FITC Mouse Anti-Human CD3, BD, 555332) and anti-pSTAT1_Y701(Alexa Fluor 647 Mouse Anti-Stat1 (pY701), BD, 612597) antibodies. Detect pSTAT1 by flow cytometry (CytoFlex S) and analyze data with FlowJo and GraphPad Prism 8 software. IC50 values of test articles were determined using 4-parameter logistic equation.

SMILES	IC50
[2H]C([2H])([2H])NC(=O)c1cnc(Nc2ccc(F)cn2)cc1Nc1nn(C)c2ccn(CC)c(=O)c12 [Example 139, 4-((5-Ethyl-1-methyl-4-oxo-4,5-dihydro-1H-pyrazolo[4,3-c]pyridin-3-yl)amino)-6-((5-fluoropyridin-2-yl)amino)-N-(methyl-d3)nicotinamide]	23.3 nM
[2H]C([2H])([2H])NC(=O)c1cnc(NC(=O)C2CC2)cc1Nc1ccc2cnn(CC)c2c1OC [Example 44, 6-(Cyclopropanecarboxamido)-4-((1-ethyl-7-methoxy-1H-indazol-6-yl)amino)-N-(methyl-d3)nicotinamide]	14.9 nM
